This note sets out measurements from US8853213B2, “Bicyclic compound for modulating G protein-coupled receptors” (Hanmi Pharm. Co., Ltd, priority 2011, dated 2014).

Where only a bound is given, the exact number is not on record here.

For the experiment, the target named is T1, GPR119 (Homo sapiens, UniProt Q8TDV5).
T1 construct: host or cells: CHO-K1 (CRE-bla reporter, doxycycline-induced)
T1 sequence (Q8TDV5 1-335): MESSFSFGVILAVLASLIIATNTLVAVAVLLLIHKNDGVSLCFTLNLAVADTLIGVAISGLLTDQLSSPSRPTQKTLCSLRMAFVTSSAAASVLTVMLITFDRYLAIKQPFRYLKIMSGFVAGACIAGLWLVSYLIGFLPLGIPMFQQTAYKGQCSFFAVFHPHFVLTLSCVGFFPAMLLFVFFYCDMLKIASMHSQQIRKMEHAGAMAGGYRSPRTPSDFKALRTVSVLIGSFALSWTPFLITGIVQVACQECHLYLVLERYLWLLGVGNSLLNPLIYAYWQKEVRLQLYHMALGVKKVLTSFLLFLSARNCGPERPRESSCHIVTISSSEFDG
The experiment can be described thus: Controlling Effect of GPR119 in CRE-bla CHO-K1 Cells (EC50). Type of experiment: cell-based. As to conditions: GPR119 CRE-bla CHO-K1 cell line, 5 hr incubation with compound, β-lactamase LiveBLAzer-FRET B/G readout; read-out: controlling effect against GPR119 in CRE-bla CHO-K1 cell line (EC50). The essentials:
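CHO-K1 cells carrying GPR119 and a CRE-β-lactamase reporter, induced with doxycycline for 16-20 h at 37° C, then exposed to compounds in 10-fold dilutions for 5 h. CCF4-AM FRET substrate added for 2 h at room temperature; blue/green fluorescence (409 ex, […]) read and EC50 derived.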
As usually defined, the EC50 is the concentration at which the effect is half-maximal. Regarding `Cn1cc(-c2ccc(S(C)(=O)=O)cc2F)c2ncnc(OC3CCN(c4ncc(C(F)(F)F)cn4)CC3)c21` [Example 31, 7-(2-fluoro-4-methanesulfonyl-phenyl)-5-methyl-4-(1-(5-(trifluoromethyl)pyrimidin-2-yl)piperidin-4-yloxy)-5H-pyrrolo[3,2-d]pyrimidine], the EC50 is under 100 nM.
As for `CC(C)OC(=O)N1CCC(Oc2ncnc3c(-c4ccc(S(C)(=O)=O)cc4F)csc23)CC1` [Example 73, isopropyl 4-(7-(2-fluoro-4-methanesulfonyl-phenyl)thieno[3,2-d]pyrimidin-4-yloxy)piperidin-1-carboxylate], the figure is under 100 nM.
As to `CCCS(=O)(=O)c1ccc(-c2csc3c(OC4CCN(c5nc(C(C)C)no5)CC4)ncnc23)cc1` [Example 106, 4-[1-(3-isopropyl-[1,2,4]oxadiazol-5-yl)-piperidin-4-yloxy]-7-(4-propylsulfonyl-phenyl)-thieno[3,2-d]pyrimidine], the EC50 is under 100 nM.
In the case of `Cn1cc(-c2ccc(S(C)(=O)=O)cc2)c2ncnc(NC3CCN(C(=O)OC(C)(C)C)CC3)c21` [Example 116, tert-butyl 4-(5-methyl-7-(4-methanesulfonyl-phenyl)-5H-pyrrolo[3,2-d]pyrimidin-4-ylamino)piperidin-1-carboxylate] it was over 1000 nM; in that of `CC(C)c1noc(C2CCN(c3ncnc4c(-c5ccc(S(=O)(=O)C(C)C)cc5)csc34)CC2)n1` [Example 22, 4-[4-(3-isopropyl-[1,2,4]oxadiazol-5-yl)-piperidin-1-yl]-7-(4-(isopropylsulfonyl)phenyl)-thieno[3,2-d]pyrimidine], under 100 nM.
As for `CC(C)(C)OC(=O)N1CCC(Nc2ncnc3c(-c4ccc(S(C)(=O)=O)cc4)csc23)CC1` [Example 109, tert-butyl 4-(7-(4-methanesulfonyl-phenyl)thieno[3,2-d]pyrimidin-4-ylamino)piperidin-1-carboxylate], the figure is 100 to 1000 nM.
As for `CC(C)c1noc(N2CCC(Oc3ncnc4c(-c5ccc(S(=O)(=O)C(F)(F)F)cc5F)csc34)CC2)n1` [Example 101, 7-(2-fluoro-4-trifluoro(methanesulfonyl)phenyl)-4-[1-(3-isopropyl-[1,2,4]oxadiazol-5-yl)-piperidin-4-yloxy]-thieno[3,2-d]pyrimidine], the figure is over 1000 nM.
On to `CC(C)c1noc(N2CCC(Oc3ncnc4c(-c5ccc(S(=O)(=O)C6CC6)cc5)csc34)CC2)n1` [Example 104, 7-(4-cyclopropylsulfonyl-phenyl)-4-[1-(3-isopropyl-[1,2,4]oxadiazol-5-yl)-piperidin-4-yloxy]-thieno[3,2-d]pyrimidine], for which the EC50 was under 100 nM.
Regarding `CS(=O)(=O)c1ccc(-c2csc3c(OC4CCN(c5ncc(C6CC6)cn5)CC4)ncnc23)cc1` [Example 56, 4-[1-(5-cyclopropyl-pyrimidin-2-yl)-piperidin-4-yloxy]-7-(4-methanesulfonyl-phenyl)-thieno[3,2-d]pyrimidine], the EC50 was under 100 nM.
Regarding `CCc1cnc(N2CCC(N(C)c3ncnc4c(-c5ccc(S(C)(=O)=O)cc5)csc34)CC2)nc1` [Example 114, [1-(5-ethylpyrimidin-2-yl)-piperidin-4-yl]-[7-(4-methanesulfonyl-phenyl)-thieno[3,2-d]pyrimidin-4-yl]-methylamine], the 50% effective concentration (EC50) is over 1000 nM.
On to `CS(=O)(=O)c1ccc(-c2csc3c(OC4CCN(c5nc(C6CCC6)no5)CC4)ncnc23)cc1` [Example 54, 3-cyclobutyl-5-(4-(7-(4-methanesulfonyl-phenyl)thieno[3,2-d]pyrimidin-4-yloxy)piperidin-1-yl)-1,2,4-oxadiazole], for which the concentration giving a half-maximal response (EC50) was under 100 nM.
As for `CC(C)c1noc(N2CCC(Oc3ncnc4c(-c5ccc(S(C)(=O)=O)cc5F)cn(C)c34)CC2)n1` [Example 36, 5-(4-(7-(2-fluoro-4-methanesulfonyl-phenyl)-5-methyl-5H-pyrrolo[3,2-d]pyrimidin-4-yloxy)piperidin-1-yl)-3-isopropyl-1,2,4-oxadiazole], the figure is under 100 nM.
As to `CC(=O)N1CCC(Oc2ncnc3c(-c4ccc(S(C)(=O)=O)cc4F)csc23)CC1` [Example 87, 1-(4-(7-(2-fluoro-4-methanesulfonyl-phenyl)thieno[3,2-d]pyrimidin-4-yloxy)piperidin-1-yl)ethanone], the half-maximal effective concentration (EC50) was over 1000 nM.
With `CS(=O)(=O)c1ccc(-c2csc3c(N4CCC(c5nc(C6CCCCC6)no5)CC4)ncnc23)cc1` [Example 7, 3-cyclohexyl-5-(1-(7-(4-methanesulfonyl-phenyl)thieno[3,2-d]pyrimidin-4-yl)piperidin-4-yl)-1,2,4-oxadiazole], the concentration giving a half-maximal response (EC50) was under 100 nM.
Consider `CC(C)(C)c1noc(N2CCC(Oc3ncnc4c(-c5ccc(-n6cncn6)cc5)csc34)CC2)n1` [Example 119, 5-(4-(7-(4-(1H-1,2,4-triazol-1-yl)phenyl)thieno[3,2-d]pyrimidin-4-yloxy)piperidin-1-yl)-3-tert-butyl-1,2,4-oxadiazole], for which the EC50 is under 100 nM.
In the case of `CS(=O)(=O)c1ccc(-c2csc3c(N4CCC(c5nc(C6CCCC6)no5)CC4)ncnc23)cc1` [Example 6, 3-cyclopentyl-5-(1-(7-(4-methanesulfonyl-phenyl)thieno[3,2-d]pyrimidin-4-yl)piperidin-4-yl)-1,2,4-oxadiazole], the concentration giving a half-maximal response (EC50) is under 100 nM.
As for `CCc1cnc(N2CCC(Oc3ncnc4c(-c5ccc(C(C)=O)cc5)cn(C)c34)CC2)nc1` [Example 44, 1-(4-{4-[1-(5-ethylpyrimidin-2-yl)-piperidin-4-yloxy]-5-methyl-5H-pyrrolo[3,2-d]pyrimidin-7-yl}-phenyl)-ethanone], the figure is 100 to 1000 nM; as for `CC(C)c1noc(C2CCN(c3ncnc4c(-c5ccc(S(C)(=O)=O)cc5F)csc34)CC2)n1` [Example 12], under 100 nM; as for `CC(C)c1csc(N2CCC(Oc3ncnc4c(-c5ccc(S(C)(=O)=O)cc5F)csc34)CC2)n1` [Example 93, 7-(2-fluoro-4-methanesulfonyl-phenyl)-4-[1-(4-isopropyl-thiazo-2-yl)piperidin-4-yloxy]-thieno[3,2-d]pyrimidine], over 1000 nM.
On to `CCc1cnc(N2CCC(Oc3ncnc4c(-c5ccc(N)cc5)cn(C)c34)CC2)nc1` [Example 121, 4-(4-(1-(5-ethylpyrimidin-2-yl)piperidin-4-yloxy)-5-methyl-5H-pyrrolo[3,2-d]pyrimidin-7-yl)benzenamine], for which the 50% effective concentration (EC50) was over 1000 nM.
For the compound `CCc1cnc(N2CCC(Oc3ncnc4c(-c5ccc(F)nc5)cn(C)c34)CC2)nc1` [Example 48, 4-(1-(5-ethylpyrimidin-2-yl)piperidin-4-yloxy)-7-(6-fluoropyridin-3-yl)-5-methyl-5H-pyrrolo[3,2-d]pyrimidine], the half-maximal effective concentration (EC50) was over 1000 nM.
As for `CS(=O)(=O)c1ccc(-c2csc3c(OC4CCN(C(=O)c5cccnc5)CC4)ncnc23)c(F)c1` [Example 90], the figure is over 1000 nM.
On to `CS(=O)(=O)c1ccc(-c2csc3c(OC4CCN(c5nc(-c6cccnc6)no5)CC4)ncnc23)c(F)c1` [Example 67, 5-(4-(7-(2-fluoro-4-methanesulfonyl-phenyl)thieno[3,2-d]pyrimidin-4-yloxy)piperidin-1-yl)-3-(pyridin-3-yl)-1,2,4-oxadiazole], for which the concentration giving a half-maximal response (EC50) was under 100 nM.
As for `COC(=O)c1ccc(-c2csc3c(OC4CCN(c5nc(C(C)C)no5)CC4)ncnc23)cc1` [Example 102, 4-{4-[1-(3-isopropyl-[1,2,4]oxadiazol-5-yl)-piperidin-4-yloxy]-thieno[3,2-d]pyrimidin-7-yl}-benzoic acid methylester], the figure is 100 to 1000 nM.
In the case of `CC(C)c1ccc(-c2cnc(N3CCC(Oc4ncnc5c(-c6ccc(S(C)(=O)=O)cc6F)csc45)CC3)nc2)cc1` [Example 86, 7-(2-fluoro-4-methanesulfonyl-phenyl)-4-{1-[5-(4-isopropylphenyl)-pyrimidin-2-yl)-piperidin-4-yloxy]-thieno[3,2-d]pyrimidine] it was under 100 nM; in that of `CCCc1cnc(N2CCC(Oc3ncnc4c(-c5ccc(S(C)(=O)=O)cc5F)csc34)CC2)nc1` [Example 83, 7-(2-fluoro-4-methanesulfonyl-phenyl)-4-[1-(5-propyl-pyrimidin-2-yl)-piperidin-4-yloxy]-thieno[3,2-d]pyrimidine], under 100 nM; in that of `CC(C)(C)OC(=O)N1CCC(Oc2ncnc3c(-c4ccc(S(C)(=O)=O)cc4F)csc23)CC1` [Example 72, tert-butyl 4-(7-(2-fluoro-4-methanesulfonyl-phenyl)thieno[3,2-d]pyrimidin-4-yloxy)piperidin-1-carboxylate], under 100 nM.
In the case of `CS(=O)(=O)c1ccc(-c2csc3c(OC4CCN(c5nc(C6CC7CCC6C7)no5)CC4)ncnc23)c(F)c1` (stereo not drawn) [Example 80, 7-(2-fluoro-4-methanesulfonyl-phenyl)-4-[1-(3-bicyclo[2,2,1]heptan-2-yl[1,2,4]oxadiazol-5-yl)piperidin-4-yloxy]thieno[3,2-d]pyrimidine] it was under 100 nM; in that of `CCc1cnc(N2CCN(c3ncnc4c(-c5ccc(S(C)(=O)=O)cc5)csc34)CC2)nc1` [Example 11, 4-(4-(5-ethylpyrimidin-2-yl)piperazin-1-yl)-7-(4-methanesulfonyl-phenyl)thieno[3,2-d]pyrimidine], 100 to 1000 nM; in that of `CS(=O)(=O)c1ccc(-c2csc3c(OC4CCN(C(=O)c5ccccc5)CC4)ncnc23)c(F)c1` [Example 89, {4-[7-(2-fluoro-4-methanesulfonyl-phenyl)-thieno[3,2-d]pyrimidin-4-yloxy]-piperidin-1-yl}phenyl-methanone], under 100 nM.
